PMC10673369, “Preliminary SAR of Novel Pleuromutilin–Polyamine Conjugates” (Microorganisms, 2023)

How the values were obtained:
S. aureus ATCC 25923 = assay: MIC, broth dilution, S. aureus; type: cell-based; settings: Staphylococcus aureus, ATCC25923, mean (n = 3)
Experimental: The susceptibility of bacterial strains S. aureus (ATCC 25923), E. coli (ATCC 25922), and P. aeruginosa (ATCC 27853 or PAO1) to antibiotics and compounds was determined using reported protocols. Additional antimicrobial evaluation against MRSA (ATCC 43300), Klebsiella pneumoniae (ATCC 700603), A. baumannii (ATCC 19606), Candida albicans (ATCC 90028), and Cryptococcus neoformans (ATCC 208821) was undertaken at the Community for Open Antimicrobial Drug Discovery at The University of Queensland (Australia) according to their standard protocols as reported previously. […]
2.3. Antimicrobial Assays
The susceptibility of bacterial strains S. aureus (ATCC 25923), E. coli (ATCC 25922), and P. aeruginosa (ATCC 27853 or PAO1) to antibiotics and compounds was determined in microplates using the standard broth dilution method in accordance with the recommendations of the Comité de l’AntibioGramme de la Société Française de Microbiologie (CA-SFM). Briefly, the minimal inhibitory concentrations (MICs) were determined with an inoculum of 10^5 CFU in 200 µL of Mueller–Hinton broth (MHB) containing two-fold serial dilutions of each drug. The MIC was defined as the lowest […]
determine all MICs, the measurements were independently repeated in triplicate. Additional antimicrobial evaluation against MRSA (ATCC 43300), Klebsiella pneumoniae (ATCC 700603), A. baumannii (ATCC 19606), Candida albicans (ATCC 90028), and Cryptococcus neoformans (ATCC 208821) was undertaken at the Community for Open Antimicrobial Drug Discovery at The University of Queensland (Australia) according to their standard protocols as reported previously. […]
For C. neoformans, resazurin was added at 0.006% final concentration to each well and incubated for a further 3 h before MICs were determined by measuring […]
Colistin and vancomycin were used as positive bacterial inhibitor standards for Gram-negative and Gram-positive bacteria, respectively. Fluconazole was used as a positive fungal inhibitor standard for C. albicans and C. neoformans. The antibiotics were provided in […], with 3 above and 3 below its MIC value, and plated into the first 8 wells of column 23 of the 384-well NBS plates. The quality control (QC) of the assays was determined by the antimicrobial controls and the Z'-factor (using positive and negative controls). Each plate was deemed to fulfil the quality criteria (pass QC) if the Z'- […]
inhibition at their highest concentration, and no growth inhibition at their lowest concentration.
2.4. Determination of the MICs of Antibiotics in the Presence of Synergizing Compounds

E. coli ATCC 25922 = assay: Antibiotic enhancement of erythromycin; type: cell-based; settings: for Erythro/E.c.: fold change, ratio between intrinsic MIC of test compound and combination MIC: erythromycin at 2.7 µM; for Erythro/E.c.: concentration required to restore erythromycin activity: erythromycin at 2.7 µM (2 µg/mL)
Experimental: [Worded in the source for another target; used here, by the source, with some conditions changed.] Antibiotic restoring enhancer concentrations were determined using reported protocols (see Supplementary File).
Briefly, restoring enhancer concentrations were determined with an inoculum of 5x10^5 CFU in 200 µL of MHB containing two-fold serial dilutions of each derivative in the presence of doxycycline at 4.5 […]
The lowest concentration of the polyamine
These measurements were independently repeated in triplicate.
Outer membrane permeabilization was measured using nitrocefin as a chromogenic substrate of periplasmic β-lactamase. Ten milliliters of MH broth were inoculated with 0.1 mL of an overnight culture of PAO1 bacteria and grown at 37°C until the OD600 reached 0.5. The remaining steps were performed at room temperature. Cells were recovered by centrifugation (4000 rpm for 20 min) and washed once in 20 mM potassium phosphate buffer (pH 7.2) containing MgCl2 (1 mM). After a second centrifugation, the pellet was resuspended and adjusted to OD600 of 0.5. Then, 50 µL of the desired compound was added to 100 µL of the cell suspension to obtain a final concentration varying from 3.9 µM to 250 µM. Fifty microliters of nitrocefin were then added to obtain a final concentration of 50 µg/mL. Nitrocefin hydrolysis was monitored spectrophotometrically by measuring the increase in absorbance at 490 nm. Assays were performed in 96-well plates using a M200 Pro Tecan […]
HEK293 cells were counted manually in a Neubauer hemocytometer and plated at a density of 5,000 cells/well into each well of the 384-well plates containing the 25x (2 µL) concentrated compounds [26,27]. The medium used was Dulbecco's modified Eagle’s medium (DMEM), supplemented with 10% fetal bovine serum (FBS). Cells were incubated together with the compounds for 20 h at 37 °C, 5% CO2.
To measure cytotoxicity, 5 µL (equals 100 µM final) of resazurin was added to each well after incubation and incubated for further 3 h at 37 °C with 5% CO2. After the final incubation, fluorescence intensity […]
reader. CC50 values (concentration at 50% cytotoxicity) were calculated by normalizing the fluorescence readout, with 74 µg/mL tamoxifen as negative control (0%) and normal cell growth as positive control (100%). The concentration-dependent percentage cytotoxicity was fitted to a dose–response function (using Pipeline Pilot) and CC50 values were determined.
Human whole blood was washed three times with three volumes of 0.9% NaCl and then resuspended in the same solution to a concentration of 0.5 x 10^8 cells/mL, as determined by the manual cell count in a Neubauer hemocytometer. The washed cells were then added to the 384-well compound-containing plates for a final volume of 50 µL. After a 10 min shake on a plate shaker, the plates were then incubated for 1 h at 37 °C. After incubation, the plates were centrifuged at 1,000g for 10 min to pellet cells and debris; 25 µL of the supernatant was then transferred to a polystyrene 384-well assay plate. Hemolysis was determined by measuring the supernatant absorbance at […] (OD405). The absorbance was measured using a Tecan M1000 Pro monochromator plate reader. HC10 and HC50 (concentration at 10% and 50% hemolysis, respectively) were calculated by curve fitting the inhibition values vs. log (concentration) using a sigmoidal dose–response function with variable fitting values for the top, bottom, and slope.
2.8. Real-time growth curves
Solutions of the compound at concentrations of 2, 4, and 16 µg/mL were tested each in triplicate against S. aureus ATCC 25923 [26]. Typically, in a 96-well plate were placed 10 µL of 40, 80, and 320 µg/mL stock solutions of compound, as well as 190 µL of a 5 x 10^5 CFU/mL of the selected bacterial suspension in brain heart infusion (BHI) broth. Positive controls containing only 200 µL of a 5 x 10^5 CFU/mL of bacterial suspension in BHI and negative controls containing only 200 µL of BHI broth were added. The plate was incubated at 37°C in a TECAN Spark Reader (Roche Diagnostic) and real-time […]

Compound | MIC (S. aureus ATCC 25923) [µM] | Erythro/E.c.: fold change, ratio between intrinsic MIC of test compound and combination MIC (E. coli ATCC 25922) | Erythro/E.c.: concentration required to restore erythromycin activity (E. coli ATCC 25922) [µM]
C=C[C@]1(C)C[C@@H](OC(=O)CNCCCNCCCCCCCCCCNCCCNCC(=O)O[C@@H]2C[C@@](C)(C=C)[C@@H](O)[C@H](C)[C@]34CCC(=O)[C@H]3[C@@]2(C)[C@H](C)CC4)[C@]2(C)[C@H](C)CC[C@]3(CCC(=O)[C@H]32)[C@@H](C)[C@@H]1O.O=C(O)C(F)(F)F.O=C(O)C(F)(F)F.O=C(O)C(F)(F)F.O=C(O)C(F)(F)F [Compound 9e, N^1,N^1′-(Decane-1,10-diyl)bis(N^3-(2-(((3aR,4R,5R,7S,8S,9R,9aS,12R)-8-hydroxy-4,7,9,12-tetramethyl-3-oxo-7-vinyldecahydro-4,9a-propanocyclopenta [8]annulen-5-yl)oxy)-2-oxoethyl)propane-1,3-diaminium) 2,2,2-trifluoroacetate] | 4.27 | 0.5 | 8.54
C=C[C@]1(C)C[C@@H](OC(=O)CNCCCNCCCCNCCCNCC(=O)O[C@@H]2C[C@@](C)(C=C)[C@@H](O)[C@H](C)[C@]34CCC(=O)[C@H]3[C@@]2(C)[C@H](C)CC4)[C@]2(C)[C@H](C)CC[C@]3(CCC(=O)[C@H]32)[C@@H](C)[C@@H]1O.O=C(O)C(F)(F)F.O=C(O)C(F)(F)F.O=C(O)C(F)(F)F.O=C(O)C(F)(F)F [Compound 9a, N^1,N^1′-(Butane-1,4-diyl)bis(N^3-(2-(((3aR,4R,5R,7S,8S,9R,9aS,12R)-8-hydroxy-4,7,9,12-tetramethyl-3-oxo-7-vinyldecahydro-4,9a-propanocyclopenta [8]annulen-5-yl)oxy)-2-oxoethyl)propane-1,3-diaminium) 2,2,2-trifluoroacetate] | 18.1 | 2 | 
C=C[C@]1(C)C[C@@H](OC(=O)CNCCCNCCCCCCNCCCNCC(=O)O[C@@H]2C[C@@](C)(C=C)[C@@H](O)[C@H](C)[C@]34CCC(=O)[C@H]3[C@@]2(C)[C@H](C)CC4)[C@]2(C)[C@H](C)CC[C@]3(CCC(=O)[C@H]32)[C@@H](C)[C@@H]1O.O=C(O)C(F)(F)F.O=C(O)C(F)(F)F.O=C(O)C(F)(F)F.O=C(O)C(F)(F)F [Compound 9b, N^1,N^1′-(Hexane-1,6-diyl)bis(N^3-(2-(((3aR,4R,5R,7S,8S,9R,9aS,12R)-8-hydroxy-4,7,9,12-tetramethyl-3-oxo-7-vinyldecahydro-4,9a-propanocyclopenta [8]annulen-5-yl)oxy)-2-oxoethyl)propane-1,3-diaminium) 2,2,2-trifluoroacetate] | 17.8 | 1 | 8.88
C=C[C@]1(C)C[C@@H](OC(=O)CNCCCNCCCCCCCCNCCCNCC(=O)O[C@@H]2C[C@@](C)(C=C)[C@@H](O)[C@H](C)[C@]34CCC(=O)[C@H]3[C@@]2(C)[C@H](C)CC4)[C@]2(C)[C@H](C)CC[C@]3(CCC(=O)[C@H]32)[C@@H](C)[C@@H]1O.O=C(O)C(F)(F)F.O=C(O)C(F)(F)F.O=C(O)C(F)(F)F.O=C(O)C(F)(F)F [Compound 9d, N^1,N^1′-(Octane-1,8-diyl)bis(N^3-(2-(((3aR,4R,5R,7S,8S,9R,9aS,12R)-8-hydroxy-4,7,9,12-tetramethyl-3-oxo-7-vinyldecahydro-4,9a-propanocyclopenta [8]annulen-5-yl)oxy)-2-oxoethyl)propane-1,3-diaminium) 2,2,2-trifluoroacetate] | 34.8 | 2 | 
C=C[C@]1(C)C[C@@H](OC(=O)CNCCCNCCCCCCCCCCCCNCCCNCC(=O)O[C@@H]2C[C@@](C)(C=C)[C@@H](O)[C@H](C)[C@]34CCC(=O)[C@H]3[C@@]2(C)[C@H](C)CC4)[C@]2(C)[C@H](C)CC[C@]3(CCC(=O)[C@H]32)[C@@H](C)[C@@H]1O.O=C(O)C(F)(F)F.O=C(O)C(F)(F)F.O=C(O)C(F)(F)F.O=C(O)C(F)(F)F [Compound 9f, N^1,N^1′-(Dodecane-1,12-diyl)bis(N^3-(2-(((3aR,4R,5R,7S,8S,9R,9aS,12R)-8-hydroxy-4,7,9,12-tetramethyl-3-oxo-7-vinyldecahydro-4,9a-propanocyclopenta [8]annulen-5-yl)oxy)-2-oxoethyl)propane-1,3-diaminium) 2,2,2-trifluoroacetate] | 2.1 | 0.5 | 8.38
C=C[C@]1(C)C[C@@H](OC(=O)CNCCCNCCCCCCCNCCCNCC(=O)O[C@@H]2C[C@@](C)(C=C)[C@@H](O)[C@H](C)[C@]34CCC(=O)[C@H]3[C@@]2(C)[C@H](C)CC4)[C@]2(C)[C@H](C)CC[C@]3(CCC(=O)[C@H]32)[C@@H](C)[C@@H]1O.O=C(O)C(F)(F)F.O=C(O)C(F)(F)F.O=C(O)C(F)(F)F.O=C(O)C(F)(F)F [Compound 9c, N^1,N^1′-(Heptane-1,7-diyl)bis(N^3-(2-(((3aR,4R,5R,7S,8S,9R,9aS,12R)-8-hydroxy-4,7,9,12-tetramethyl-3-oxo-7-vinyldecahydro-4,9a-propanocyclopenta [8]annulen-5-yl)oxy)-2-oxoethyl)propane-1,3-diaminium) 2,2,2-trifluoroacetate] | 17.6 | 2 | 
C=C[C@]1(C)C[C@@H](OC(=O)CSCCN(CC)CC)[C@]2(C)[C@H](C)CC[C@]3(CCC(=O)[C@H]32)[C@@H](C)[C@@H]1O [Compound 2, Tiamulin, reference compound] | 3.12 | 0.5 | > 405
